PMC9525273 (Nature Communications, 2022)
Several values for one entry are separate records, joined by “and”; a condition that tells them apart may be missing. Identical values can stand only once. Like-named read-outs stand apart in the source and are kept apart here.

Experiments:
Assay type in all cases: cell-based, Plasmodium falciparum
Dd2 parasites = test: P. falciparum proliferation assay (72 h, fluorescent DNA-intercalating dye); conditions: for Parasite proliferation (% of no-cipargamin control), MEAN: MEAN of 16 experiments
Description: (§1) For experiments with all other parasites, the effects of compounds of interest on parasite proliferation was measured in 96-well plates containing serial dilutions of the compounds in culture medium, with a fluorescent DNA-intercalating dye used to detect surviving parasites. The assays were initiated with erythrocytes infected with predominantly ring-stage parasites, and the starting parasitaemia and haematocrit were both 1%.

[1] = test system: Dd2-PfATP4^T418N,P990R parasites; test: as above; conditions: for Parasite proliferation (% of no-cipargamin control), MEAN: MEAN of 16 experiments
Description: as §1

Dd2-Polδ parasites = test: as above
Description: as §1

[2] = test system: Dd2-Polδ-PfATP4^G358S parasites; test: as above
Description: as §1

[3] = test system: HCR1 parasites (highly cipargamin-resistant clone 1); test: as above; conditions: for Parasite proliferation (% of no-cipargamin control), MEAN: MEAN of 16 experiments; for IC50: Plasmodium falciparum
Description: as §1

[4] = test system: HCR2 parasites (highly cipargamin-resistant clone 2); test: as above; conditions: for Parasite proliferation (% of no-cipargamin control), MEAN: MEAN of 16 experiments; for IC50: Plasmodium falciparum
Description: as §1

NF54^G358S-1 parasites = test: P. falciparum proliferation assay (72 h, flow cytometry, SYBR Green I/MitoTracker)
Method in brief: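 Predominantly ring-stage cultures at 0.3% parasitaemia, 1% haematocrit, in medium with 10% O+ human serum; compound exposure 72 h, DMSO <0.5% (v/v). Live parasites counted by flow cytometry with SYBR Green I and 200 nM MitoTracker Deep Red. IC50/IC90 from linear interpolation of dose-response data.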

C[C@H]1Cc2c([nH]c3cc(Cl)c(F)cc23)[C@@]2(N1)C(=O)Nc1ccc(Cl)cc12 [Cipargamin]
Mean IC50 value ± SEM for growth inhibition (Dd2 parasites; Dd2, Supplementary Table 1, Set 1): subnanomolar
Parasite proliferation (% of no-cipargamin control), MEAN (Dd2 parasites; Dd2, [Cipargamin] 0.195312 nM): 100.9 % of no-cipargamin control
Parasite proliferation (% of no-cipargamin control), MEAN (Dd2 parasites; Dd2, [Cipargamin] 0.390625 nM): 94.5 % of no-cipargamin control
Parasite proliferation (% of no-cipargamin control), MEAN (Dd2 parasites; Dd2, [Cipargamin] 0.78125 nM): 30.2 % of no-cipargamin control
Parasite proliferation (% of no-cipargamin control), MEAN (Dd2 parasites; Dd2, [Cipargamin] 1.5625 nM): 3.4 % of no-cipargamin control
Parasite proliferation (% of no-cipargamin control), MEAN (Dd2 parasites; Dd2, [Cipargamin] 3.125 nM): 0.3 % of no-cipargamin control
Parasite proliferation (% of no-cipargamin control), MEAN (Dd2 parasites; Dd2, [Cipargamin] 6.25 nM): 0.5 % of no-cipargamin control
Parasite proliferation (% of no-cipargamin control), MEAN (Dd2 parasites; Dd2, [Cipargamin] 25 nM): 0.0247 % of no-cipargamin control
IC50 (Dd2 parasites; Plasmodium falciparum, DD2, read-out: IC50 values, MEAN, Dd2, MEAN, source data of Fig. 2): 0.68 nM
Parasite proliferation (% of no-cipargamin control), MEAN ([1]; Dd2-PfATP4T418N,P990R, [Cipargamin] 0.195312 nM): 100.7 % of no-cipargamin control
Parasite proliferation (% of no-cipargamin control), MEAN ([1]; Dd2-PfATP4T418N,P990R, [Cipargamin] 0.390625 nM): 102.0 % of no-cipargamin control
Parasite proliferation (% of no-cipargamin control), MEAN ([1]; Dd2-PfATP4T418N,P990R, [Cipargamin] 0.78125 nM): 99.8 % of no-cipargamin control
Parasite proliferation (% of no-cipargamin control), MEAN ([1]; Dd2-PfATP4T418N,P990R, [Cipargamin] 1.5625 nM): 99.9 % of no-cipargamin control
Parasite proliferation (% of no-cipargamin control), MEAN ([1]; Dd2-PfATP4T418N,P990R, [Cipargamin] 3.125 nM): 94.7 % of no-cipargamin control
Parasite proliferation (% of no-cipargamin control), MEAN ([1]; Dd2-PfATP4T418N,P990R, [Cipargamin] 6.25 nM): 78.8 % of no-cipargamin control
Parasite proliferation (% of no-cipargamin control), MEAN ([1]; Dd2-PfATP4T418N,P990R, [Cipargamin] 25 nM): 1.2 % of no-cipargamin control
IC50 ([1]; Dd2-PfATP4T418N,P990R, single experiments, source data of Fig. 2 (nM in Supplementary Table 1), read-out: IC50 values): 7.9 nM
IC50 ([1]; Plasmodium falciparum, DD2, Dd2-PfATP4T418N,P990R, MEAN, source data of Fig. 2, read-out: IC50 values, MEAN): 9.17 nM
IC50 ([1]; Plasmodium falciparum, DD2, Dd2-PfATP4T418N,P990R, Supplementary Table 1, Set 1, read-out: Mean IC50 value ± SEM for growth inhibition): < 10 nM
IC50 (Dd2-Polδ parasites; Dd2-Polδ, single experiments, source data of Fig. 2 (nM in Supplementary Table 1), read-out: IC50 values): 1.4 nM
IC50 (Dd2-Polδ parasites; Plasmodium falciparum, DD2, Dd2-Polδ, MEAN, source data of Fig. 2, read-out: IC50 values, MEAN): 1.43 nM
IC50 (Dd2-Polδ parasites; Plasmodium falciparum, DD2, parental Dd2-Polδ, paired with MMV665949-selected Culture 1, n = 3, read-out: IC50 value): 0.57 ± 0.02 nM
IC50 ([2]; Dd2-Polδ-PfATP4G358S, single experiments, source data of Fig. 2 (nM in Supplementary Table 1), read-out: IC50 values): 1140 nM and 1420 nM and 1580 nM and 1640 nM and 1670 nM and 1510 nM
IC50 ([2]; Plasmodium falciparum, DD2, Dd2-Polδ-PfATP4G358S, MEAN, source data of Fig. 2, read-out: IC50 values, MEAN): 1420 nM
IC50 ([2]; Plasmodium falciparum, DD2, Dd2-Polδ-PfATP4G358S, single experiments, source data of Fig. 2 (nM in Supplementary Table 1), read-out: IC50 values): 980 nM
Parasite proliferation (% of no-cipargamin control), MEAN ([3]; HCR1, [Cipargamin] 100 nM): 98.5 % of no-cipargamin control
Parasite proliferation (% of no-cipargamin control) ([3]; HCR1, [Cipargamin] 100 nM, single experiments 1-16): 100.9 % of no-cipargamin control and 100.0 % of no-cipargamin control and 87.1 % of no-cipargamin control and 88.2 % of no-cipargamin control
Parasite proliferation (% of no-cipargamin control), MEAN ([3]; HCR1, [Cipargamin] 200 nM): 94.4 % of no-cipargamin control
Parasite proliferation (% of no-cipargamin control), MEAN ([3]; HCR1, [Cipargamin] 400 nM): 91.8 % of no-cipargamin control
Parasite proliferation (% of no-cipargamin control), MEAN ([3]; HCR1, [Cipargamin] 800 nM): 83.6 % of no-cipargamin control
Parasite proliferation (% of no-cipargamin control), MEAN ([3]; HCR1, [Cipargamin] 1600 nM): 71.5 % of no-cipargamin control
Parasite proliferation (% of no-cipargamin control), MEAN ([3]; HCR1, [Cipargamin] 3200 nM): 44.9 % of no-cipargamin control
Parasite proliferation (% of no-cipargamin control), MEAN ([3]; HCR1, [Cipargamin] 6400 nM): 13.3 % of no-cipargamin control
Parasite proliferation (% of no-cipargamin control), MEAN ([3]; HCR1, [Cipargamin] 25600 nM): -0.564 % of no-cipargamin control
IC50 ([3]; HCR1, MEAN, source data of Fig. 2, read-out: IC50 values, MEAN): 2840 nM
IC50 ([3]; read-out: Mean IC50 value ± SEM for growth inhibition, HCR1, Supplementary Table 1, Set 1): 2840 ± 190 nM
Parasite proliferation (% of no-cipargamin control), MEAN ([4]; HCR2, [Cipargamin] 100 nM): 99.1 % of no-cipargamin control
Parasite proliferation (% of no-cipargamin control) ([4]; HCR2, [Cipargamin] 100 nM, single experiments 1-16): 100.1 % of no-cipargamin control and 100.0 % of no-cipargamin control and 96.3 % of no-cipargamin control and 89.0 % of no-cipargamin control
Parasite proliferation (% of no-cipargamin control), MEAN ([4]; HCR2, [Cipargamin] 200 nM): 93.8 % of no-cipargamin control
Parasite proliferation (% of no-cipargamin control), MEAN ([4]; HCR2, [Cipargamin] 400 nM): 90.7 % of no-cipargamin control
Parasite proliferation (% of no-cipargamin control), MEAN ([4]; HCR2, [Cipargamin] 800 nM): 85.4 % of no-cipargamin control
Parasite proliferation (% of no-cipargamin control), MEAN ([4]; HCR2, [Cipargamin] 1600 nM): 71.9 % of no-cipargamin control
Parasite proliferation (% of no-cipargamin control), MEAN ([4]; HCR2, [Cipargamin] 3200 nM): 46.7 % of no-cipargamin control
Parasite proliferation (% of no-cipargamin control), MEAN ([4]; HCR2, [Cipargamin] 6400 nM): 13.6 % of no-cipargamin control
Parasite proliferation (% of no-cipargamin control), MEAN ([4]; HCR2, [Cipargamin] 25600 nM): -0.466 % of no-cipargamin control
IC50 ([4]; HCR2, MEAN, source data of Fig. 2, read-out: IC50 values, MEAN): 2920 nM
IC50 ([4]; read-out: Mean IC50 value ± SEM for growth inhibition, HCR2, Supplementary Table 1, Set 1): 2920 ± 200 nM
IC50 (NF54^G358S-1 parasites; NF54G358S-1, single experiments, source data of Fig. 2 (nM in Supplementary Table 5), read-out: IC50 values): 2030 nM and 1970 nM and 2280 nM
FC (IC50) (NF54^G358S-1 parasites; NF54G358S-1 compared to NF54WT): 768.6 fold
FC (IC90) (NF54^G358S-1 parasites; NF54G358S-1 compared to NF54WT): 910.8 fold
IC90 (NF54^G358S-1 parasites; NF54G358S-1 parasites, individual experiments, read-out: IC90 values): 3.46 µM (2×) and 3.39 µM
IC50 (NF54^G358S-1 parasites; Plasmodium falciparum, NF54, NF54G358S-1, 10% human serum, read-out: IC50 ± SEM): 2030 ± 93.9 nM
IC90 (NF54^G358S-1 parasites; Plasmodium falciparum, NF54, NF54G358S-1, 10% human serum, read-out: IC90 ± SEM): 3461 ± 30.7 nM
IC50 (NF54^G358S-1 parasites; Plasmodium falciparum, NF54, NF54G358S-1, MEAN, source data of Fig. 2, read-out: IC50 values, MEAN): 2030 nM
IC50 (NF54^G358S-1 parasites; Plasmodium falciparum, NF54, NF54G358S-1, single experiments, source data of Fig. 2 (nM in Supplementary Table 5), read-out: IC50 values): 1840 nM
IC90 (NF54^G358S-1 parasites; Plasmodium falciparum, NF54, NF54G358S-1 parasites, individual experiments, read-out: IC90 values): 3540 nM
IC90 (NF54^G358S-1 parasites; Plasmodium falciparum, NF54, NF54G358S-1 parasites, mean of the experiments, read-out: IC90 values, MEAN): 3460 nM
